Reference: publication PMC10914731, “Homo-BacPROTAC-induced degradation of ClpC1 as a strategy against drug-resistant mycobacteria” (Nature Communications, 2024)
≈ marks a conversion by molar mass, not a printed value. Where “and” joins values, the source holds several entries; their conditions need not be identical. Identical values can stand only once. Like-named read-outs stand apart in the source and are kept apart here. Where a SMILES comes first, the peptide text is derived from it. [ ]: non-standard residue; d: D form. NMeLeu(5-OH,4R) = CN[C@@H](C[C@@H](C)CO)C(=O)O; Phe(βR-OMe) = CO[C@H](c1ccccc1)[C@H](N)C(=O)O; Trp(1-Me) = Cn1cc(C[C@H](N)C(=O)O)c2ccccc21; NMeL = CN[C@@H](CC(C)C)C(=O)O; Pra = C#CC[C@H](N)C(=O)O

How the values were obtained:
[1] = Microsomal stability, human; type: in vitro ADME; conditions: for Microsomal Stability Human: clearance in microsomes
Procedure, shortened: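 Compound (1 µmol/l) was incubated at 37 °C with 0.5 mg/ml liver microsomes in 100 mM Tris-HCl pH 7.5, 6.5 mM MgCl2 and 1 mM NADPH. Reactions were quenched with acetonitrile at several time points and parent remaining quantified by HPLC-MS/MS; first-order half-lives were converted to clearance as %Qh via the well-stirred model.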

[2] = test system: Msm 700084; experiment: microbe, parasite or virus in culture; type: cell-based
[3] = in vivo; type: in vivo, BALB/cAnNCrl mice; conditions: BLOQ <1.00 nmol/L
Procedure: The in-life experimental procedures were conducted in strict compliance with German and European animal welfare legislation in an AAALAC-accredited facility. Male BALB/cAnNCrl mice (Charles River Laboratories Research Models and Services, 97633 Sulzfeld, Germany) were used. Animals were 9 weeks old at dosing with a body weight of 21.6–24.3 g. Animals were delivered free of pathogens according to FELASA recommendations with a health certificate provided by the breeder. Upon receipt, the state of health and sex was checked. Animals acclimatized for at least 5 days before the commencement of the in-life phase. During acclimation, animals were group-housed in individually ventilated cages, on birch wood granulate bedding with species-specific enrichment (nesting material, mouse igloo, gnawing wood). During experimental conduct, animals were housed in conventional cages with elevated grid floors. Grid floor was used to avoid contamination with test item material excreted via urine and feces and subsequent reuptake during fur grooming. No bedding and enrichment were provided except a cage divider, which can be used as a shelter. Animals always had unlimited access to food and water and received a pelleted, total pathogen-free maintenance diet and tap drinking water, sterilized by filter.
On the day before dosing, test item(s) were suspended in kleptose (20% in WFI) under continuous stirring (3.0 mg/ml). Following 2 min vortexing and 1 h stirring, the formulation was sonicated at 60 °C for 30 min and stirred at ambient temperature overnight. Before dosing, the formulation was vortexed for 2 min followed by ultraturrax treatment for 2 min.
Male BALB/cAnNCrl mice (n = 3 per test item and administration route) received a bolus dose of the formulated test item(s) (1 mg/kg iv, 30 mg/kg po) at t = 0 h, and whole blood samples were collected subsequently (35 µl at 0.1 (iv) / 0.25 (po), 0.5, 1, 2, 4, 6 h; 600 µl at sacrifice after 24 h). Animals were euthanized by exsanguination in deep isoflurane anesthesia. Whole blood samples were immediately stored on ice at about 4 °C. Plasma was separated by centrifugation at approximately 10,000 × g for 5 m at +4 °C. Centrifugation of each blood sample was started within 10 m after collection. A single aliquot of at least 15 µL of plasma was prepared and immediately stored at −20 ± 5 °C.
Sample proteins were precipitated with ACN (1 + 12, v/v) containing internal standard, and supernatants analyzed by quantitative UPLC-MS/MS: Phenomenex Luna Omega C18, 2.1 × 50 mm, 1.6 µm, 40 °C, gradient between 10% - 90% ACN with 0.1% formic acid. LogD determination: Lipophilicity of the test items, expressed as chromLogD7.5, was assessed by measuring their chromatographic retention times on C18-material. The chromatographic retention versus logD7.5 values of a series of thirteen n-alkan-2-ones (2-butanone – 2-hexadecanone) served as lipophilicity calibration.

[4] = test system: Mycobacterium abscessus; experiment: microbe, parasite or virus in culture; type: cell-based
[5] = test system: Mtb ATCC 35825; experiment: microbe, parasite or virus in culture; type: cell-based
[6] = test system: Mycobacterium fortuitum; experiment: microbe, parasite or virus in culture; type: cell-based
[7] = test system: Mtb (katG del) ATCC 35822; experiment: microbe, parasite or virus in culture; type: cell-based
[8] = test system: Mtb (moxR) FNDR-M1; experiment: microbe, parasite or virus in culture; type: cell-based
[9] = test system: Staphylococcus aureus; experiment: MIC ESKAPES panel, Staphylococcus aureus; type: cell-based
Procedure: Minimum inhibitory concentration (MIC) against ESKAPES panel of Gram positive and Gram negative pathogens (Enterococcus faecium, Staphylococcus aureus, Klebsiella pneumoniae, Acinetobacter baumannii, Pseudomonas aeruginosa, Enterobacter cloacae and Salmonella typhimurium [ESKAPES panel]) were determined at the FNDR by the standard broth dilution method [CLSI, M100]. […] Mueller Hinton broth (MHB) medium was used to grow ESKAPES panel strains. The individual cultures were added as 200 μL (inoculum of 3–7 × 10^5 cfu/ml) to the respective assay plates in each well to all columns, except the media control (200 μL of medium). […] The assay plates were incubated at 37 °C, and the results were noted on the 2nd day as turbidometric readout. The clear wells indicated inhibition of growth, while the turbid wells indicated uninhibited growth.

[10] = Mycolicibacterium smegmatis, 700084, read-out: MIC Msm 700084
[11] = oral gavage 30 mg/kg, mice, Mean
[12] = oral gavage, individual animals 1-3
[13] = Experiment 2, three replicate columns
[14] = Experiment 2, three replicate columns, read-out: MIC (µM) Mycobacterium abscessus
[15] = Mycobacteroides abscessus, Experiment 1, read-out: MIC Mycobacterium abscessus
[16] = Mycobacteroides abscessus, Experiment 2, three replicate columns, read-out: MIC (µM) Mycobacterium abscessus
[17] = Mycobacteroides abscessus, Experiment 2, three replicate columns, read-out: MIC (µg/ml) Mycobacterium abscessus
[18] = Mycobacteroides abscessus, mean ± SD, read-out: MIC Mycobacterium abscessus
[19] = Mycobacterium tuberculosis, ATCC35825, mean, n = 2 well replicates
[20] = Mycobacterium tuberculosis, ATCC35825, single well replicates
[21] = Experiment 2, three replicate columns, read-out: MIC (µM) Mycobacterium fortuitum
[22] = Mycolicibacterium fortuitum, Experiment 1, read-out: MIC Mycobacterium fortuitum
[23] = Mycolicibacterium fortuitum, Experiment 2, three replicate columns, read-out: MIC (µM) Mycobacterium fortuitum
[24] = Mycolicibacterium fortuitum, Experiment 2, three replicate columns, read-out: MIC (µg/ml) Mycobacterium fortuitum
[25] = Mycolicibacterium fortuitum, mean ± SD, read-out: MIC Mycobacterium fortuitum
[26] = Mycobacterium tuberculosis, ATCC35822, M. tuberculosis ATCC 35822, single well replicates
[27] = Mycobacterium tuberculosis, ATCC35822, Mtb (katG del) ATCC 35822, mean ± SD, n = 3 well replicates
[28] = M. tuberculosis FNDR-M1, single well replicates
[29] = Mycobacterium tuberculosis, M. tuberculosis FNDR-M1, single well replicates
[30] = Mycobacterium tuberculosis, Mtb (moxR) FNDR-M1, mean ± SD, n = 3 well replicates
[31] = Staphylococcus aureus, Gram positive, n = 3 well replicates
[32] = Staphylococcus aureus, Gram-Positive Bacteria, replicates 1-3

| SMILES | Microsomal Stability Human QH [1] [%] | Microsomal Stability Human [1] [%Qh] | MIC [2, 10] [µM] | MIC (µg/ml) Mycobacterium abscessus [4, 13] [µg/mL] | MIC [4, 14] [µM] | MIC [4, 15] | MIC [4, 16] [µM] | MIC [4, 17] [µg/mL] | MIC [4, 18] [µM] | MIC [5, 19] | MIC [5, 20] | MIC ([5]; single well replicates) [µM] | MIC Mtb ATCC 35825 ([5]; single well replicates) [mg/L] | MIC (µg/ml) Mycobacterium fortuitum [6, 13] [µg/mL] | MIC [6, 21] [µM] | MIC [6, 22] | MIC [6, 23] [µM] | MIC [6, 24] [µg/mL] | MIC [6, 25] [µM] | MIC [7, 26] [µM] | other results |
| --- | --- | --- | --- | --- | --- | --- | --- | --- | --- | --- | --- | --- | --- | --- | --- | --- | --- | --- | --- | --- | --- |
| CO[C@H](c1ccccc1)[C@@H]1NC(=O)[C@H](C)NC(=O)[C@H](C[C@@H](C)CO)N(C)C(=O)[C@H](Cc2cn(Cc3cn(CCOCCn4cc(Cn5cc(C[C@@H]6NC(=O)[C@H](C(C)C)NC(=O)[C@H](CC(C)C)N(C)C(=O)[C@H](C(C)C)NC(=O)[C@H]([C@H](OC)c7ccccc7)NC(=O)[C@H](C)NC(=O)[C@H](C[C@@H](C)CO)N(C)C6=O)c6ccccc65)nn4)nn3)c3ccccc23)NC(=O)[C@H](C(C)C)NC(=O)[C@H](CC(C)C)N(C)C(=O)[C@H](C(C)C)NC1=O [Compound 6] | 69.600 | 70 | 20.8 ± 15.1 (≈ 42.4 µg/mL) |  |  |  |  |  |  |  |  |  |  |  |  |  |  |  |  |  | Plasma concentration 0.5 h [3, 11]: BLOQ; Plasma concentration 1 h [3, 11]: BLOQ; Plasma concentration 2 h [3, 11]: BLOQ; Plasma concentration 4 h [3, 11]: BLOQ; Plasma concentration 6 h [3, 11]: BLOQ; Plasma concentration 24 h [3, 11]: BLOQ; Plasma concentration […] [3, 11]: BLOQ; Plasma concentration 0.5 h [3, 12]: BLOQ; Plasma concentration 1 h [3, 12]: BLOQ; Plasma concentration 2 h [3, 12]: BLOQ; Plasma concentration 4 h [3, 12]: BLOQ; Plasma concentration 6 h [3, 12]: BLOQ; Plasma concentration 24 h [3, 12]: BLOQ; Plasma concentration […] [3, 12]: BLOQ |
| C#CC[C@@H]1NC(=O)[C@H](CC(C)C)N(C)C(=O)[C@H](C(C)C)NC(=O)[C@H]([C@H](OC)c2ccccc2)NC(=O)[C@H](C)NC(=O)[C@H](C[C@@H](C)CO)N(C)C(=O)[C@H](Cc2cn(C)c3ccccc23)NC1=O [Compound 10] (cyclo(A[Phe(βR-OMe)]V[NMeL][Pra][Trp(1-Me)][NMeLeu(5-OH,4R)])) | >88.400 | > 88 | 25 (≈ 22.8 µg/mL) | 11.41 (≈ 12.5 µM) | 12.5 | 12.5 µM and 11.4 µg/mL | 12.5 | 11.4 | 12.5 | 0.4 µM and 0.4 µg/mL | 0.36 µg/mL and 0.39 µM | 0.39 (≈ 0.356 µg/mL) | 0.36 (≈ 0.394 µM) | 11.41 (≈ 12.5 µM) | 12.5 | 11.4 µg/mL | 12.5 | 11.4 | 12.5 | 1.56 (≈ 1.42 µg/mL) | MIC ([2]; Mycolicibacterium smegmatis, 700084, single determinations, read-out: Msm 700084 MIC): 25 µM (≈ 22.8 µg/mL); MIC ([6]; Experiment 1, read-out: MIC Mycobacterium fortuitum): 12.5 µM; MIC [7, 27]: 1.6 µM (≈ 1.46 µg/mL); MIC [8, 28]: 1.56 µM (≈ 1.42 µg/mL); MIC [8, 29]: 1.56 µM (≈ 1.42 µg/mL); MIC [8, 30]: 1.6 µM (≈ 1.46 µg/mL); MIC ([9]; Gram-Positive Bacteria, replicates 1-3): >50 µM; MIC [9, 31]: > 50 µM; MIC [9, 32]: > 45.6 mg/L |
| COc1c(N2C[C@@H]3CCCN[C@@H]3C2)c(F)cc2c(=O)c(C(=O)O)cn(C3CC3)c12 [Moxifloxacin, reference compound] |  |  |  | 1 (≈ 2.49 µM) | 2.49 | 2.49 µM and 1 µg/mL | 2.49 | 1 | 2.5 | 0.1 µM and 0.1 µg/mL | 0.06 µg/mL and 0.15 µM | 0.15 (≈ 0.0602 µg/mL) | 0.06 (≈ 0.149 µM) | 0.06 (≈ 0.149 µM) | 0.15 | 0.0747 µM and 0.03 µg/mL | 0.15 | 0.06 | 0.1 | 0.31 (≈ 0.124 µg/mL) | MIC ([7]; M. tuberculosis ATCC 35822, single well replicates): 0.31 µM (≈ 0.124 µg/mL); MIC [7, 27]: 0.3 µM (≈ 0.12 µg/mL); MIC [8, 28]: 19.93 µM (≈ 8 µg/mL); MIC [8, 29]: 19.9 µM (≈ 8 µg/mL); MIC [8, 30]: 19.9 µM (≈ 7.99 µg/mL); MIC [9, 31]: 0.3 µM; MIC [9, 32]: 0.31 µM and 0.125 µg/mL |
